Assays:
[1] = Evaluation of moisture retaining ability in dry conditions (weight change, 18° C., RH 20%); assay type: physicochemical; settings: initial moisture content 60%, constant temperature and humidity chamber 18° C.
Method: Moisture retaining ability was evaluated and compared for the compounds obtained in the Examples.
Specifically, samples were prepared such that the moisture content of the compounds obtained in the Examples was 60%, and while the samples were kept in a constant temperature and humidity chamber (18° C., RH 20%), the weight change of the samples was observed over time, thereby enabling evaluation of the changes in moisture content.

hairless Guinea pigs = experiment: Evaluation of the increase of moisture content in the skin (Corneometer, acetone-damaged skin barrier); assay type: in vivo; settings: flank, 200 μl applied after 30 min acetone patch; for moisture content of the stratum corneum, 6 h after sample application: relative to content directly after acetone treatment = 100, 6 h; for moisture content of the stratum corneum, 12 h after sample application: relative to content directly after acetone treatment = 100, 12 h; for moisture content of the stratum corneum, 24 h after sample application: relative to content directly after acetone treatment = 100, 24 h; for moisture content of the stratum corneum, 48 h after sample application: relative to content directly after acetone treatment = 100, 48 h
Method: The degree of the increase of moisture content in the skin was measured for the compounds obtained in the Examples. The increase of moisture content in the skin was measured by dividing 50 hairless Guinea pigs into 10 groups, and applying the compounds obtained in the Examples to each group.
Specifically, after the skin barrier was damaged by patching acetone using Finn chamber for 30 minutes to the flank site of the experiment animals, 200 μl of each experimental substance was applied to the patched site, then the moisture content of the stratum corneum of the site was measured using Corneometer and then evaluated. Apparatus measurements were carried out directly after and 6 hours, 12 hours, 24 hours and 48 hours after removing the acetone patch. Changes of moisture content in the skin were evaluated relative to the content measured directly after the acetone treatment, which was set to be 100.

| moisture content of sample, 1 h [1] [%] | moisture content of sample, 2 h [1] [%] | moisture content of sample, 4 h [1] [%] | moisture content of sample, 6 h [1] [%] | Molecule | moisture content of the stratum corneum, 6 h after sample application (hairless Guinea pigs) | moisture content of the stratum corneum, 12 h after sample application (hairless Guinea pigs) | moisture content of the stratum corneum, 24 h after sample application (hairless Guinea pigs) | moisture content of the stratum corneum, 48 h after sample application (hairless Guinea pigs) |
| --- | --- | --- | --- | --- | --- | --- | --- | --- |
| 58 | 52 | 44 | 29 | pentaerythritol ethoxylate (15/4 EO/OH) glycolic ester ethoxylate cetyl ether (pentaerythritol ethoxylate (15/4 EO/OH) ceteth-10 carboxylate) [Example 38] | 108 | 111 | 112 | 114 |
| 57 | 50 | 41 | 25 | OCC(O)CO [Glycerol, reference compound] | 109 | 113 | 115 | 117 |
| 58 | 56 | 49 | 45 | pentaerythritol ethoxylate (15/4 EO/OH) glycolic ester ethoxylate lauryl ether (pentaerythritol ethoxylate (15/4 EO/OH) laureth-6 carboxylate) [Example 34] | 105 | 110 | 116 | 114 |

The remaining lines, values behind:

| Molecule | moisture content of sample, 1 h [1] [%] | moisture content of sample, 2 h [1] [%] | moisture content of sample, 4 h [1] [%] | moisture content of sample, 6 h [1] [%] | moisture content of the stratum corneum, 6 h after sample application (hairless Guinea pigs) | moisture content of the stratum corneum, 12 h after sample application (hairless Guinea pigs) | moisture content of the stratum corneum, 24 h after sample application (hairless Guinea pigs) | moisture content of the stratum corneum, 48 h after sample application (hairless Guinea pigs) |
| --- | --- | --- | --- | --- | --- | --- | --- | --- |
| pentaerythritol glycolic ester ethoxylate cetyl ether (pentaerythritol ceteth-10 carboxylate) [Example 10] | 58 | 57 | 50 | 44 | 101 | 105 | 109 | 113 |
| pentaerythritol ethoxylate (3/4 EO/OH) glycolic ester ethoxylate octyl ether(pentaerythritol ethoxylate (3/4 EO/OH) capreth-4 carboxylate) [Example 17] | 57 | 53 | 47 | 38 | 103 | 106 | 108 | 104 |
| pentaerythritol ethoxylate (3/4 EO/OH) glycolic ester ethoxylate cetyl ether (pentaerythritol ethoxylate (3/4 EO/OH) ceteth-4 carboxylate) [Example 22] | 56 | 52 | 48 | 43 | 100 | 105 | 109 | 115 |
| pentaerythritol ethoxylate (15/4 EO/OH) glycolic ester ethoxylate hexyl ether (pentaerythritol ethoxylate (15/4 EO/OH) hexeth-4 carboxylate) [Example 29] | 57 | 55 | 50 | 43 | 106 | 109 | 111 | 109 |
| pentaerythritol glycolic ester ethoxylate lauryl ether (pentaerythritol laureth-4 carboxylate) [Example 5] | 58 | 55 | 49 | 41 | 98 | 99 | 103 | 105 |
| pentaerythritol ethoxylate (15/4 EO/OH) glycolic ester ethoxylate stearyl ether (pentaerythritol ethoxylate (15/4 EO/OH) steareth-10 carboxylate) [Example 42] | – | – | – | – | 106 | 110 | 109 | 111 |
